Assay results from patent EP1311531B1, “STEROID DERIVED ANTIBIOTICS” (Brigham Young University, priority 2000, dated 2002).
Values after ≈ are worked out from the molar mass of the structure shown. Read-outs that look alike come from different tables or passages of the source.

Experiments:
[1] = system: Pseudomonas aeruginosa ATCC 27853; experiment: Sensitization to erythromycin, novobiocin or rifampicin (permeabilization, FIC); type: cell-based; conditions: Table 7; P. aureginosa (ATCC 27853); with erythromycin
Experimental: (§1) FICs can be performed by checkerboard titrations of compounds in one dimension of a microtiter plate, and of antibiotics in the other dimension, for example. The FIC is calculated by looking at the impact of one antibiotic on the MIC of the other and vice versa. […] Preferably, an FIC of less than 0.5 is obtained for synergism. As used herein, FIC can be determined as follows: FIC = (MIC(compound in combination))/(MIC(compound alone)) + (MIC(antibiotic in combination))/(MIC(antibiotic alone)) [formula]
(§2) Aliquots of 1 mL of the suspension were added to test tubes containing 1 mL TSB and incrementally varied concentrations of cholic acid derivatives and/or erythromycin or novobiocin. In the sensitization experiments, erythromycin or novobiocin were added 15 minutes later than the cholic acid derivatives. The samples were subjected to stationary incubation at 37°C for 24 hours. Sample turbidity was determined by measuring absorption at 760 nm (HP 8453 UV-Visible Chemstation, Hewlett Packard). Additionally, an alliquot from each of the samples showing no measurable turbidity was subcultured on TSA plates (alliquots were diluted to provide fewer than 300 CFU). Colonies that grew on the subculture after overnight incubation were counted and the number of CFU/mL in the samples were calculated. The calculated values were compared to the number of CFU/mL in the original inoculum.
Concentrations of 0.5, 1.0 or 3.0 µg/mL of these antibiotics were used, and the concentrations of the cholic acid derivatives required to inhibit bacterial growth of Gram-negative strains were determined.

[2] = system: Pseudomonas aeruginosa ATCC 27853; experiment: MIC and MBC measurement; type: cell-based
Experimental: (§3) General: Microorganisms. Reference strains were purchased from the American Type Culture Collection (Rockville, MD) or Bactrol disks from Difeo Laboratories (Detroit, MI). […] Bacterial strains were maintained on Mueller-Hinton agar plates, and Candida albicans was maintained on Sabouraud Dextrose agar plates.
(§4) Aliquots (20 mL) of the homogeneous solution were then poured in sterile plastic petri dishes (100 x 15 mm, Fisher Scientific). Solutions of compounds were made by dissolving the HCl salt of the respective compound into an appropriate amount of deionized and sterilized water followed by microfiltration.
(§5) Aliquots of 1 mL of the suspension were added to test tubes containing 1 mL TSB and incrementally varied concentrations of cholic acid derivatives and/or erythromycin or novobiocin. […] Additionally, an alliquot from each of the samples showing no measurable turbidity was subcultured on TSA plates (alliquots were diluted to provide fewer than 300 CFU). Colonies that grew on the subculture after overnight incubation were counted and the number of CFU/mL in the samples were calculated. The calculated values were compared to the number of CFU/mL in the original inoculum.

E. coli (ATCC 10798) [3] = experiment: MIC and MBC measurement; type: cell-based, Escherichia coli
Experimental: as §3, §4, §5

E. coli (ATCC 10798) [4] = experiment: Sensitization to erythromycin or novobiocin (outer membrane permeabilization, FIC); type: cell-based, Escherichia coli; conditions: for MBC: Escherichia coli; for concentration required to lower the MIC of erythromycin from 70 µg/mL to 1 µg/mL: Table 2; for (a) Concentration required to lower the MIC of erythromycin from 70 to 1 µg/mL / (b) MBC with 1 µg/mL erythromycin / FIC^c (FIC values with erythromycin) / (d) Concentration required to lower the MIC of novobiocin from >500 to 1 µg/mL / FIC^c (FIC values with novobiocin): Table 9, Escherichia coli (ATCC 10798)
Experimental: as §1, §2
They were also tested for the ability to permeabilize the outer membrane of Gram-negative bacteria, causing sensitization to hydrophobic antibiotics that cannot cross the outer membrane. The permeabilization of the outer membrane was measured using erythromycin and novobiocin.

[5] = ATCC27853, Table 6, P. aureginosa (ATCC 27853)
[6] = Escherichia coli, ATCC10798, Table 1, E. coli (ATCC 10798), read-out: MBC
[7] = Escherichia coli, ATCC10798, Table 1, E. coli (ATCC 10798), read-out: MIC
[8] = Table 9, Escherichia coli (ATCC 10798)
[9] = ATCC10798, Table 2, E. coli (ATCC 10798), with erythromycin
[10] = E. coli (ATCC 10798), with erythromycin
[11] = ATCC10798, Table 9, Escherichia coli (ATCC 10798), read-out: MBC
[12] = ATCC10798, Table 9, Escherichia coli (ATCC 10798), read-out: MIC

Row | SMILES | MIC (E. coli (ATCC 10798) [3]; [7]) [µg/mL] | MIC (E. coli (ATCC 10798) [3]; [12]) [µg/mL] | concentration required to lower the MIC of erythromycin from 70 µg/mL to 1 µg/mL (E. coli (ATCC 10798) [4]; [10]) [µg/mL] | (a) Concentration required to lower the MIC of erythromycin from 70 to 1 µg/mL (E. coli (ATCC 10798) [4]) [µg/mL] | (b) MBC with 1 µg/mL erythromycin (E. coli (ATCC 10798) [4]) [µg/mL] | FIC^c (FIC values with erythromycin) (E. coli (ATCC 10798) [4]) | MBC (E. coli (ATCC 10798) [3]; [11]) [µg/mL] | (d) Concentration required to lower the MIC of novobiocin from >500 to 1 µg/mL (E. coli (ATCC 10798) [4]) [µg/mL] | FIC^c (FIC values with novobiocin) (E. coli (ATCC 10798) [4]) | also measured
1 | CCCCCCCCOCCC[C@@H](C)[C@H]1CC[C@H]2[C@@H]3[C@H](OCCCN)C[C@@H]4C[C@H](OCCCN)CC[C@]4(C)[C@H]3C[C@H](OCCCN)[C@]12C [Compound 9] | 3 (≈ 4.42 µM) | – | 3 | 3.0 | 3.0 | 1.0 | – | – | – | concentration required to lower the MIC of erythromycin from 240 µg/mL to 5 µg/mL [1]: 5 µg/mL; MIC [2, 5]: 8 µg/mL (≈ 11.8 µM); MBC (E. coli (ATCC 10798) [3]; [6]): 10 µg/mL (≈ 14.7 µM); MBC (E. coli (ATCC 10798) [3]; [8]): 10 µg/mL (≈ 14.7 µM); MIC (E. coli (ATCC 10798) [3]; [8]): 3.0 µg/mL (≈ 4.42 µM); MBC (E. coli (ATCC 10798) [4]; [9]): 3 µg/mL
2 | C[C@H](CCCOCCC[C@@H](C)[C@H]1CC[C@H]2[C@@H]3[C@H](OCCCN)C[C@@H]4C[C@H](OCCCN)CC[C@]4(C)[C@H]3C[C@H](OCCCN)[C@]12C)[C@H]1CC[C@H]2[C@@H]3[C@H](OCCCN)C[C@@H]4C[C@H](OCCCN)CC[C@]4(C)[C@H]3C[C@H](OCCCN)[C@]12C [Compound 12] | 4 (≈ 3.59 µM) | – | 1.5 | – | – | – | – | – | – | MBC (E. coli (ATCC 10798) [3]; [6]): 4 µg/mL (≈ 3.59 µM); MBC (E. coli (ATCC 10798) [4]; [9]): 2.5 µg/mL
3 | C[C@H](CCCOS(=O)(=O)O)[C@H]1CC[C@H]2[C@@H]3[C@H](OCCCN)C[C@@H]4C[C@H](OCCCN)CC[C@]4(C)[C@H]3C[C@H](OCCCN)[C@]12C [Compound 132] | – | – | – | – | – | – | – | – | – | MIC (E. coli (ATCC 10798) [3]; Escherichia coli, ATCC10798, E. coli (ATCC 10798), read-out: MIC): 60 µg/mL (≈ 92.9 µM); concentration required to lower the MIC of erythromycin to 1 µg/mL (E. coli (ATCC 10798) [4]; E. coli (ATCC 10798)): 4.0 µg/mL
4 | C[C@H](CCCN(C)Cc1ccccc1)[C@H]1CC[C@H]2[C@@H]3[C@H](OCCCCN)C[C@@H]4C[C@H](OCCCCN)CC[C@]4(C)[C@H]3C[C@H](OCCCCN)[C@]12C [Compound 3] | 6 (≈ 8.44 µM) | – | 1.5 | – | – | – | – | – | – | concentration required to lower the MIC of erythromycin from 240 µg/mL to 5 µg/mL [1]: 6 µg/mL; MIC [2, 5]: 16 µg/mL (≈ 22.5 µM)
5 | C[C@H](CCCN(C)Cc1ccccc1)[C@H]1CC[C@H]2[C@@H]3[C@H](OCCN)C[C@@H]4C[C@@H](OCCN)CC[C@]4(C)[C@H]3C[C@H](OCCN)[C@]12C [Compound 8] | 46 (≈ 73.4 µM) | – | 10 | – | – | – | – | – | – | concentration required to lower the MIC of erythromycin from 240 µg/mL to 5 µg/mL [1]: 40 µg/mL; MIC [2, 5]: 50 µg/mL (≈ 79.7 µM)
6 | CC(O)[C@H]1CC[C@H]2[C@@H]3[C@H](OCCCN)C[C@@H]4C[C@H](OCCCN)CC[C@]4(C)[C@H]3C[C@H](OCCCN)[C@]12C (stereo partly shown) [Compound 11] | 140 (≈ 267 µM) | – | 40 | 20 | 180 | 0.16 | – | 40 | 0.29 | MBC (E. coli (ATCC 10798) [3]; [6]): > 160 µg/mL; MBC (E. coli (ATCC 10798) [3]; [8]): >160 µg/mL; MIC (E. coli (ATCC 10798) [3]; [8]): 140 µg/mL (≈ 267 µM); MBC (E. coli (ATCC 10798) [4]; [9]): > 160 µg/mL; MBC (E. coli (ATCC 10798) [4]; ATCC10798, Table 3, E. coli (ATCC 10798), with novobiocin): 140 µg/mL
7 | CO[C@@H]1[C@@H](OC(N)=O)[C@@H](O)[C@H](Oc2ccc3c(O)c(NC(=O)c4ccc(O)c(CC=C(C)C)c4)c(=O)oc3c2C)OC1(C)C [novobiocin, reference compound] | – | – | – | – | – | – | – | – | – | MIC ([2]; ATCC27853, antibiotic alone, P. aureginosa (ATCC 27853)): > 500 µg/mL; MIC (E. coli (ATCC 10798) [3]; Escherichia coli, ATCC10798, antibiotic alone, E. coli (ATCC 10798), read-out: MIC): > 500 µg/mL

Further lines, with some results ahead:

Row | MIC (E. coli (ATCC 10798) [3]; [7]) [µg/mL] | MIC (E. coli (ATCC 10798) [3]; [12]) [µg/mL] | SMILES | concentration required to lower the MIC of erythromycin from 70 µg/mL to 1 µg/mL (E. coli (ATCC 10798) [4]; [10]) [µg/mL] | (a) Concentration required to lower the MIC of erythromycin from 70 to 1 µg/mL (E. coli (ATCC 10798) [4]) [µg/mL] | (b) MBC with 1 µg/mL erythromycin (E. coli (ATCC 10798) [4]) [µg/mL] | FIC^c (FIC values with erythromycin) (E. coli (ATCC 10798) [4]) | MBC (E. coli (ATCC 10798) [3]; [11]) [µg/mL] | (d) Concentration required to lower the MIC of novobiocin from >500 to 1 µg/mL (E. coli (ATCC 10798) [4]) [µg/mL] | FIC^c (FIC values with novobiocin) (E. coli (ATCC 10798) [4]) | also measured
8 | – | 3 (≈ 4.72 µM) | CCCCCOCCC[C@@H](C)[C@H]1CC[C@H]2[C@@H]3[C@H](OCCCN)C[C@@H]4C[C@H](OCCCN)CC[C@]4(C)[C@H]3C[C@H](OCCCN)[C@]12C [Compound 113] | – | 0.8 | 2.0 | 0.28 | 5 (≈ 7.86 µM) | 1.0 | 0.27 | –
9 | – | 70 (≈ 130 µM) | C[C@H](CO)[C@H]1CC[C@H]2[C@@H]3[C@H](OCCCN)C[C@@H]4C[C@H](OCCCN)CC[C@]4(C)[C@H]3C[C@H](OCCCN)[C@]12C [Compound 108] | – | 4.0 | 140 | 0.071 | 140 (≈ 260 µM) | 12 | 0.17 | –
10 | – | 30 (≈ 51.7 µM) | COCCC[C@@H](C)[C@H]1CC[C@H]2[C@@H]3[C@H](OCCCN)C[C@@H]4C[C@H](OCCCN)CC[C@]4(C)[C@H]3C[C@H](OCCCN)[C@]12C [Compound 111] | – | 1.0 | 20 | 0.048 | 33 (≈ 56.9 µM) | 2.0 | 0.069 | –
11 | – | 70 (≈ 127 µM) | C[C@H](CCO)[C@H]1CC[C@H]2[C@@H]3[C@H](OCCCN)C[C@@H]4C[C@H](OCCCN)CC[C@]4(C)[C@H]3C[C@H](OCCCN)[C@]12C [Compound 109] | – | 4.0 | 80 | 0.071 | 120 (≈ 217 µM) | 15 | 0.22 | –
